This passage reports AC50, IC50 and EC50 results from ChEMBL document CHEMBL1201862, “PubChem BioAssay data set” (2004).

Among the targets are Cytochrome P450 3A4 (Homo sapiens, UniProt P08684); Cytochrome P450 2C9 (Homo sapiens, UniProt P11712); Cytochrome P450 2D6 (Homo sapiens, UniProt P10635).
A further series addresses T1, Cytochrome P450 1A2 (Homo sapiens, UniProt P05177).
T1 sequence (P05177 whole entry): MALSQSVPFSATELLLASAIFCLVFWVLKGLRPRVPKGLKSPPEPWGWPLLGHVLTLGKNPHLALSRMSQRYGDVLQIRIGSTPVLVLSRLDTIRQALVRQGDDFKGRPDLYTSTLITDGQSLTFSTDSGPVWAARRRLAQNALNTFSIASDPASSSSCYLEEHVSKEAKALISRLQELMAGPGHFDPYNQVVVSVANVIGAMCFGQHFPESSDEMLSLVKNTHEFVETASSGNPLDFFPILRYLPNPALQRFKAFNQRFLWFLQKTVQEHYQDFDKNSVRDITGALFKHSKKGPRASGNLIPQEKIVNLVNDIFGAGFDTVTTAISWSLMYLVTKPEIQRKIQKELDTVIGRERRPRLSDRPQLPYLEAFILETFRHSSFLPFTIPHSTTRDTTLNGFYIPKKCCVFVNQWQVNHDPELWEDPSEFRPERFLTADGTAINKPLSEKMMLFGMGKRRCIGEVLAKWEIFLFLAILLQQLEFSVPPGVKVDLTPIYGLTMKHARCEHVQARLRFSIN

A short description of series [1]: Luminescence Cell-Based Dose Retest to Confirm Inhibitors of Cancer Stem Cells. [Related pubchem assays (depositor defined):AID2717, AID2721]. It counts as functional. The following applies: Homo sapiens.
The target in series [2] is T2, Rac GTPase-activating protein 1 (Homo sapiens, UniProt Q9H0H5).
T2 sequence (Q9H0H5 whole entry): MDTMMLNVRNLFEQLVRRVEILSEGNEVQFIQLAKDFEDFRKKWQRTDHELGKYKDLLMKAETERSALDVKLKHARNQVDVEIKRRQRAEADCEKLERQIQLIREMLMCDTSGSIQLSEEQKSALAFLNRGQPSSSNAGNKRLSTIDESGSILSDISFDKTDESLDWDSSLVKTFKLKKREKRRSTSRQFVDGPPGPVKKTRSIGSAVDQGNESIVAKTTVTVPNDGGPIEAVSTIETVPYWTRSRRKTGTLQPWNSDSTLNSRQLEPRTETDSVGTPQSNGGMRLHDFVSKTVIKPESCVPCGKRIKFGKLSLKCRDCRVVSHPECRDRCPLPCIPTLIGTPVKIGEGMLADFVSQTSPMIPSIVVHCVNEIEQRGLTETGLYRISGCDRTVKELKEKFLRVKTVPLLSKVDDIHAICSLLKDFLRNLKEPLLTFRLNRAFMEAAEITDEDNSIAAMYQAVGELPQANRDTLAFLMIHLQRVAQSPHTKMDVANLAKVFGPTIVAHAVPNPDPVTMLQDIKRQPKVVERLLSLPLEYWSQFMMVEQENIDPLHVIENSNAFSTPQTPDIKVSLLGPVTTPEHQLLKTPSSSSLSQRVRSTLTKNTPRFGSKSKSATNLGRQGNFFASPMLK
Description: MgcRacGAP GTPase-activating activity inhibitors, confirmation, biochemical, ADP Hunter fluorescence, primary and confirmatory (AID 624330). It counts as functional.

The next series has as its target Cytochrome P450 2C19 (Homo sapiens, UniProt P33261). Put plainly: Cytochrome panel assay with activity outcomes. Panel member name: p450-cyp2c19 Compounds with AC50 equal or less than 10 uM are considered active. The class given is functional.
In series [3] the target is T3, Heat shock factor protein 1 (Mus musculus, UniProt P38532).
T3 sequence (P38532 whole entry): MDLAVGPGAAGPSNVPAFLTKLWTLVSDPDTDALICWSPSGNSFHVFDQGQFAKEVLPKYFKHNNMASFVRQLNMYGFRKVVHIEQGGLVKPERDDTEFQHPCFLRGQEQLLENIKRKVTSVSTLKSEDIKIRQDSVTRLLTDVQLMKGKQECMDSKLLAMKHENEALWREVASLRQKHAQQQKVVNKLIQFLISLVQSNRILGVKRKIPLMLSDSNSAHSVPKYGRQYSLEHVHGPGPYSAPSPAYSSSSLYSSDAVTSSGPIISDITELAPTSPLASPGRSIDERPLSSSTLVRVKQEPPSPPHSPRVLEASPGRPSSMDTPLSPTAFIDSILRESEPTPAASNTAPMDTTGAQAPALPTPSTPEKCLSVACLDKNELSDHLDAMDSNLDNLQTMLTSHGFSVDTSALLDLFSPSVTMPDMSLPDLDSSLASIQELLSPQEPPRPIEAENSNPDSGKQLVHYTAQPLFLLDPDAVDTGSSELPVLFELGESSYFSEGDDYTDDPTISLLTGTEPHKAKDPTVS
Description: inhibition of MG132-induced HSE-luciferase signal, confirmation, cell-based, NIH3T3, luminescence, dose retest (AID 2382).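 Note: NIH3T3 fibroblasts with HSF1-driven luciferase reporter stressed by proteasome inhibitor MG132; luminescence from HSF1-driven luciferase expression after 8 hours of MG132 stress.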 It counts as functional.

A further series concerns Streptococcus. Description: Group A Streptococcus viability loss, dose response, counter-screen for streptokinase expression inhibitor project, luminescence, BacTiterGlo (AID 1915).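 Note: potency for reduction of bacterial viability or growth.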 It counts as functional, organism-based.
Series [4] deals with Streptococcus sp. 'group A'. Description: growth inhibition of control SK(-) GAS strain, dose response, counter-screen for streptokinase expression inhibitor project, luminescence, kanamycin, BacTiterGlo, confirmation (AID 1900). It counts as functional, organism-based.
Series [5] can be described thus: growth suppression of beta-catenin-knockout colon cells, dose response, cell-based, HCT116, human colon tumor (AID 1045).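 Note: HCT116 colon tumor cells with beta catenin knocked out; cells exposed to compound for 60 hours.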 It counts as functional.
Series [6] in a line: growth suppression of PTEN-null colon cells, dose response, cell-based, HCT116 PTEN knockout (AID 1047).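 Note: HCT116 colon tumor cells with PTEN knocked out; cells exposed to compound for 60 hours before readout; potency for loss of cell viability measured by luminescence.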 The class given is functional.

Calls of active or inactive are those of the source. A value given as a limit tells only on which side of the number the result lay.

Sequence of Cytochrome P450 3A4 (P08684 whole entry): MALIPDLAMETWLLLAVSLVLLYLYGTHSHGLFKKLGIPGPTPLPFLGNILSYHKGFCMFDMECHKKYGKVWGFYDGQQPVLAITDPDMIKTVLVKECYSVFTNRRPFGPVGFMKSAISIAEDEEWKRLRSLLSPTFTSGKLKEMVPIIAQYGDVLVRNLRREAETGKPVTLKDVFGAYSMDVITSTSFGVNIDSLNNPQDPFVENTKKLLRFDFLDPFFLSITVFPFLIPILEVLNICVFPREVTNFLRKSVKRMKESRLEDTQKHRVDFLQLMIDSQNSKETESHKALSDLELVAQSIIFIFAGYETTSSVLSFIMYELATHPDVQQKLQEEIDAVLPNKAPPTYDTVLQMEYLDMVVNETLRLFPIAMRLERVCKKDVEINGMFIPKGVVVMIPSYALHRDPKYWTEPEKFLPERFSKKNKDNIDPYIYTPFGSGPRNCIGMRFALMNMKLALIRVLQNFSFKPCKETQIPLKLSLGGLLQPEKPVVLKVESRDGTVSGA
Sequence of Cytochrome P450 2C19 (P33261 whole entry): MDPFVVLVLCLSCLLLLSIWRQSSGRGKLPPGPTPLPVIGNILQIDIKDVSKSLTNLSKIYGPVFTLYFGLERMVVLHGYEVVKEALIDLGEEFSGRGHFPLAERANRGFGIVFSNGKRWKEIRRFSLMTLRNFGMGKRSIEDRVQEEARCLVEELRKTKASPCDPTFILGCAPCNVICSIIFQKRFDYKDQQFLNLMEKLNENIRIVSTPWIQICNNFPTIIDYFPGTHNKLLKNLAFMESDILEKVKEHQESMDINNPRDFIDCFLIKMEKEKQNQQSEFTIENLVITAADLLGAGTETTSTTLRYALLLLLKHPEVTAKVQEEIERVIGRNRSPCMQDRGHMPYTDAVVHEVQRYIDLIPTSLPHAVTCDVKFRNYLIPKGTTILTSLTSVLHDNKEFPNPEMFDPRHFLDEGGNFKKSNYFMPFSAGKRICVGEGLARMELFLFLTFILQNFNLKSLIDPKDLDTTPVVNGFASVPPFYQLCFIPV
Sequence of Cytochrome P450 2C9 (P11712 whole entry): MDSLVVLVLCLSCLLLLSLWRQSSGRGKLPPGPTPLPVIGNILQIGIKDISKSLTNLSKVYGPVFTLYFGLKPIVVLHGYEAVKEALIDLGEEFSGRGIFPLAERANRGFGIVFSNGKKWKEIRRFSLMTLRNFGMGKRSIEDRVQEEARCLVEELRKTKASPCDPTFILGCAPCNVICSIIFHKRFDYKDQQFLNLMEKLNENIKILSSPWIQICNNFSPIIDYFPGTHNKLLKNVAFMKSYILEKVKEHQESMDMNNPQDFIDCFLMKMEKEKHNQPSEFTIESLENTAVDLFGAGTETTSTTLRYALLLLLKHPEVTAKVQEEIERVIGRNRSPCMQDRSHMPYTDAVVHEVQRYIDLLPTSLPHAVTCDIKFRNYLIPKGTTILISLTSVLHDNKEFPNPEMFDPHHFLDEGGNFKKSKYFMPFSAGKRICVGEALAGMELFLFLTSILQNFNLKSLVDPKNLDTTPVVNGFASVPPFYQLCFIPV
Sequence of Cytochrome P450 2D6 (P10635 whole entry): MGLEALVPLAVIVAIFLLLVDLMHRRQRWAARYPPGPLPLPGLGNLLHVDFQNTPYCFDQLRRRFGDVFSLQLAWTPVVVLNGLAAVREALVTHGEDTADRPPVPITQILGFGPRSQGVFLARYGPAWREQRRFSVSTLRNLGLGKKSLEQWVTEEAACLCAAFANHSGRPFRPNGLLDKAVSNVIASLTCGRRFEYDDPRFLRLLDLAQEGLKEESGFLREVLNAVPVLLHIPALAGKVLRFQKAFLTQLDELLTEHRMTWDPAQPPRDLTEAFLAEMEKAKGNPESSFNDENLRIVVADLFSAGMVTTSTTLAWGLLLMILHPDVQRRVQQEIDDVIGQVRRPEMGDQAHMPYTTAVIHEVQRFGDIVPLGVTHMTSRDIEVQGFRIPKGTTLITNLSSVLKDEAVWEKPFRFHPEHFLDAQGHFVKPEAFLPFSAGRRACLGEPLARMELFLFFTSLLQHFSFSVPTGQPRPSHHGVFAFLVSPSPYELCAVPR

Consider `Cc1ccc(C(=O)NC(=S)Nc2ccc(S(=O)(=O)N3CCN(C)CC3)cc2)cc1`, for which the AC50 at Cytochrome P450 1A2 is 12.6 µM (inconclusive); at Cytochrome P450 3A4, 0.891 µM (inconclusive). Regarding `C#CCOCCOCCOCCNc1nc(N2CCN(C(=O)CCCCCCCCCCNC(=O)Cn3cc(C[C@@H](C)O)nn3)CC2)nc(N2CCN(C(=O)CCCCCCCCCCNC(=O)[C@@H]([C@H](C)O)n3cc(C)nn3)CC2)n1`, the AC50 in series [1] was 4.67 µM (active). As to `Oc1ccc(/N=C(\S)Nc2ccc(O)cc2)cc1`, in series [2], the IC50 is 41.7 µM (active).

With `Cc1ccc(Nc2cc(C)c3ccc(O)cc3n2)cc1C`, the AC50 in series [1] was 4.45 µM (active). Regarding `COc1ccc(-c2c[nH]nc2-c2ccc(O)cc2O)cc1OC`, in [2], the IC50 was 60.2 µM (active). As for `C=C(CC1([C@@H](NP(=O)(c2ccccc2)c2ccccc2)[C@H]2C[C@@H]2CCCC)CC1)c1cccc(OC)c1`, the AC50 on Cytochrome P450 2C19 (read-out: AC50) is 15.8 µM (inconclusive); at Cytochrome P450 1A2 it was 12.6 µM (inconclusive); on Cytochrome P450 2C9, 39.8 µM (inconclusive); on Cytochrome P450 2D6, 39.8 µM (inconclusive). For `O=C(c1cccc(F)c1)N1CCC2(CCN(Cc3ccncc3)CC2)CC1`, the AC50 on Cytochrome P450 2C19 (read-out: AC50) was 25.1 µM (inconclusive); on Cytochrome P450 1A2, 12.6 µM (inconclusive); at Cytochrome P450 3A4, 15.8 µM (inconclusive); on Cytochrome P450 2D6, 12.6 µM (inconclusive). As to `Cc1cccc(-n2ncc3c(N4CCCc5ccccc54)ncnc32)c1`, the AC50 in series [1] was 7.31 µM (active). Take `Cc1ccccc1CN1CCN(C(=O)c2cccc3ccccc23)CC1`: in [2], the half-maximal inhibitory concentration (IC50) is 215 µM (active). Turning to `Cc1[nH]n(-c2ccc([N+](=O)[O-])cc2)c(=O)c1/C=N/CCN1CCN(C(=O)C(C)C)CC1`, the half-maximal effective concentration (EC50) in series [3] is given as > 195 µM (not active). For the same molecule, in series [1], the AC50 is 4.61 µM (active). As for `C=C(C)COc1ccc(-c2[nH]nc(C)c2-c2ccc(Br)cc2)c(O)c1`, the EC50 in the series with Streptococcus was 4.72 µM (active); in [4] it was 2.99 µM (active). Besides, in [1], the AC50 was 0.692 µM (active). Turning to `CC(=O)Nc1ccc2c(c1)/C(=C/c1ccc([N+](C)(C)C)cc1)c1ccccc1-2`, the half-maximal activity concentration (AC50) on Cytochrome P450 1A2 was 1.58 µM (inconclusive); on Cytochrome P450 2C9 it was 3.16 µM (inconclusive).

As to `CC(=O)Oc1ccc(C2=NN(c3ccccc3)C(c3ccccc3)C2)cc1` (stereo unspecified), the AC50 in series [1] was 2.63 µM (active). As to `O=[N+]([O-])c1ccc(COc2ccc(-c3[nH]ncc3-c3ccccc3)c(O)c2)cc1`, the AC50 in series [1] is 4.73 µM (active). With `COc1ccc(C2c3c(ncn(Cc4ccco4)c3=N)Oc3ccc4ccccc4c32)cc1` (stereo unspecified), the concentration giving a half-maximal response (EC50) in series [5] is 8.89 µM (active); in [6], 9.97 µM (active). Besides, the AC50 in [1] was 4.48 µM (active). `COCCNC(=S)Nc1cc(OC)c(OC)cc1C#N`: the IC50 in series [2] was 204 µM (active).

As to `COc1cc(/C=C/C(=O)OCC(=O)N2CCN(C(=O)c3ccco3)CC2)ccc1O`, the IC50 in [2] was 44.8 µM (active). `O=c1c(-c2cccs2)nc2cnc(N3CCOCC3)nc2n1Cc1cccs1`: the AC50 is 15.8 µM (inconclusive) at Cytochrome P450 1A2 and 10 µM (inconclusive) at Cytochrome P450 3A4.

As for `O=C1N[C@@]2(CN3CCC2CC3)C(=O)N1CN(Cc1ccccc1)c1ccccc1`, the AC50 is 1.58 µM (inconclusive) at Cytochrome P450 2C19 (read-out: AC50) and 0.398 µM (inconclusive) on Cytochrome P450 1A2. `CC(=O)[C@H](C(=N)C#N)C(=O)Nc1ccccc1`: the results for the AC50 entry at Cytochrome P450 2C19 and at Cytochrome P450 1A2 were “inconclusive” and 6.31 µM (inconclusive), respectively. For `CC1CCN(c2ccc(NC(=S)NC(=O)c3ccco3)cc2)CC1`, the concentration at half-maximal activity (AC50) was 3.98 µM (inconclusive) at Cytochrome P450 2C19 (read-out: AC50), 28.2 µM (inconclusive) on Cytochrome P450 1A2, 1.41 µM (inconclusive) on Cytochrome P450 2C9 and 17.8 µM (inconclusive) at Cytochrome P450 3A4. Take `Cn1c(=O)c(C(=O)NNC(=O)c2ccc(Br)cc2)c(O)c2ccccc21`: the AC50 in [1] was 3.03 µM (active). Take `CCCCOc1ccc(C(=O)Nc2ccc3c(c2)OCO3)cc1`: the AC50 in series [1] was 1.46 µM (active).

For `Cc1ccc(CN2CCSc3ccc(C(=O)NCc4ccco4)cc32)cc1`, the AC50 in series [1] is 12.1 µM (active). On the same count and under the same terms, for `CN(C)C(=O)/C(C#N)=C\c1cc(Br)c(Sc2ccc(Cl)cc2)o1` the value was 4.82 µM (active).

Turning to `Cc1cccc(NC(S)=NNC(=O)CCn2cc(C)cn2)c1`, the AC50 result on Cytochrome P450 2C19 is “inconclusive”; at Cytochrome P450 1A2 it was 25.1 µM (inconclusive).

By AC50 is commonly meant the concentration at which the activity in the assay is half-maximal. The term IC50 denotes the midpoint of a concentration-inhibition curve. The EC50 is the midpoint of the concentration-response curve.
